Data taken from patent publication US4866066A, “Thiomethylpyridine derivatives and their use for eliciting a bronchosecretolytic or mucolytic response” (Ludwig Heumann & Co. GmbH, priority 1982, dated 1989).
Structures can show the parent of a compound that is named as a salt. Where two headings read alike, the source gives them in different places.

What was measured:
[1] = tested on: tracheal secretion of phenol red; assay: Secretostimulating activity: tracheal secretion of phenol red after oral administration to non-anaesthetized mice; format: in vivo; details: for ED50: Table I, non-anaesthetized mice, promotion of tracheal phenol red secretion, calculated from regression curves
Experimental: The increase in the tracheal secretion of phenol red is a measure of bronchosecretolytic activity. The relevant activity of the test substances was studied after oral administration to non-anaesthetized mice. The ED50 -values indicated in Table I were calculated using the regression curves.

bronchial mucus = assay: Mucosecretolytic activity in dogs: viscosity of bronchial mucus after i.v. administration; format: in vivo, mongrel dogs; details: for Viscosity, 1 hour after administration: 1 hour after 10 mg/kg i.v.; for Viscosity, 1 hour after administration / Viscosity, initial value: mucus 1% w/v in 0.1M tris-buffer pH 7; for reduction in the viscosity of the bronchial mucus (in words): i.v., dogs, identical quantity by weight; for Viscosity, initial value: immediately before administration, 10 mg/kg i.v., baseline
Experimental: Bronchial mucus was removed by means of a bronchoscope from anaesthetized mongrel dogs immediately before and 1 hour after intravenous administration of the test substances and taken up in phosphate buffer. After dialyzation and freeze-drying, the mucus samples were taken up in 0.1M tris-buffer (pH 7) (final concentration 1% w/v). Viscosity was measured by means of a rotary viscosimeter (as manufactured by Contraves, Stuttgart).

[2] = Acute oral toxicity in mice; details: mouse, in vivo, p.o.
From the text: The compounds according to the invention show low oral toxicity in acute tests.

mice = details: p.o., under identical conditions; cited from earlier work

c1cnc(SCc2cccnc2)nc1 [Example 1, 2-(pyridyl-3-methylthio)-pyrimidine hydrochloride]
ED50 ([1]; Mus musculus, read-out: ED50): 1.5 mg/kg | activity in promoting tracheal secretion of phenol red (in words) ([1]; mice, among compounds of Table I): strongest activity | effect in promoting the secretion of phenol red relative to Ambroxol ([1]; mice, times stronger than Ambroxol): approximately 160 times | Viscosity, 1 hour after administration (bronchial mucus): 1.2 mPa × s | reduction in the viscosity of the bronchial mucus (in words) (bronchial mucus): even more distinct reduction in the viscosity of the bronchial mucus | Viscosity, initial value (bronchial mucus): 3.9 mPa × s | LD50 [2]: 1160 mg/kg

Cc1cc(C)nc(SCc2cccnc2)n1 [Example 4, 2-(pyridyl-3-methylthio)-4,6-dimethyl-pyrimidine hydrochloride]
ED50 ([1]; Mus musculus, read-out: ED50): 12 mg/kg

c1cncc(CSc2nc3ccccc3o2)c1 [Example 7]
ED50 ([1]; Mus musculus, read-out: ED50): 15 mg/kg

c1ccc(CSc2nc3ccccc3o2)nc1 [Example 9, 2-(methylthio-2-pyridyl)-benzoxazole oxalate]
ED50 ([1]; Mus musculus, read-out: ED50): 45 mg/kg

c1ccc(SCc2cccnc2)nc1 [Example 5, 2-(pyridyl-3-methylthio)-pyridine dihydrochloride]
ED50 ([1]; Mus musculus, read-out: ED50): 2.1 mg/kg

2-(methylthio-3-pyridyl)-oxazolo(4,5-c) pyridine dihydrochloride [Example 10]
ED50 [1]: 12 mg/kg

Nc1c(Br)cc(Br)cc1CN[C@H]1CC[C@H](O)CC1 [Ambroxol, trans-4-(2-amino-3,5-dibromobenzyl)-aminocyclohexanol, reference compound]
ED50 ([1]; Mus musculus, read-out: ED50): 250 mg/kg | Viscosity, 1 hour after administration (bronchial mucus): 2.3 mPa × s | reduction in the viscosity of the bronchial mucus (in words) (bronchial mucus): distinct reduction in the viscosity of the bronchial mucus | Viscosity, initial value (bronchial mucus): 3.8 mPa × s | toxicity compared with 2-(pyridyl-3-methylthio)-pyrimidine hydrochloride (in words) (mice): slidingly less toxic

c1ccc(CSc2ncccn2)nc1 [Example 2, 2-(pyridyl-2-methylthio)-pyrimidine hydrochloride]
ED50 ([1]; Mus musculus, read-out: ED50): 400 mg/kg

Cc1ccc2nc(SCc3cccnc3)oc2c1 [Example 8, hydrochloride]
ED50 ([1]; Mus musculus, read-out: ED50): 15 mg/kg

Cc1ccnc(SCc2cccnc2)n1 [Example 3, 2-(pyridyl-3-methylthio)-4-methyl-pyrimidine hydrochloride]
ED50 ([1]; Mus musculus, read-out: ED50): 10 mg/kg

c1ccc(CSc2ccccn2)nc1 [Example 6, 2-(pyridyl-2-methylthio)-pyridine dihydrochloride]
ED50 ([1]; Mus musculus, read-out: ED50): 6.3 mg/kg
